Measurements: patent US20200377885A1, “COMPOSITIONS AND METHODS FOR THE GENERATION OF NEURONS AND USES THEREOF” (Washington University, priority 2017, published 2020)
“Also recorded” adds a separate entry of the source.

What was measured:
ATM = ATM (Homo sapiens, UniProt Q13315); details: earlier findings; cited from earlier work
HD-MSNs [1] = experiment: Spontaneous cell death of HD-MSNs by SYTOX green dead-cell staining; format: cell-based, human; details: 0.5 μM added at 30 days post induction, assessed at PID 35, vs DMSO
Experimental: (§1) In addition, Hoechst 33342 solution (Thermo Fisher Scientific) was added as a counterstain to label all nuclei at a final concentration of 1 μg/ml in culture media. Samples were incubated for at least 10 minutes in 37° C. Images were captured using a Leica DMI 400B inverted microscope with Leica Application Suite (LAS) Advanced Fluorescence. Three images were taken from random areas of each coverslip for at least three biological replicates per experiment. Quantification performed by counting number of SYTOX-positive cells over total Hoechst signal.
(§2) The ATM-Kinase inhibitor KU-60019 was obtained from Abcam (ab144817), solubilized in DMSO and directly added to the cell culture media for a final concentration of 0.5 μM at 30 days post miR-9/9*-124 induction, then cell death was assessed by SYTOX at PID 35. Controls were treated with the same volume of DMSO but no drug. At day 35, cells treated with DMSO or KU-60019 also were treated with 1 mM of H2O2 for three hours. SYTOX green/Hoechst stain was added as already described and imaged for scoring.

HD-MSNs [2] = experiment: H2O2-induced oxidative stress cell death of HD-MSNs (SYTOX green/Hoechst); format: cell-based, human; details: 0.5 μM, 1 mM H2O2 for three hours at day 35, vs DMSO
Experimental: as §1, §2

[3] = test system: GFP-74Q-expressing HEF cells; experiment: Inclusion body formation in GFP-74Q-expressing HEFs after proteasome inhibition; format: cell-based, human; details: 5 μM, 24 hours later, vs DMSO
Description: Because the findings contrasted with previous studies that report the lack of mHTT aggregates in iPSC-derived neurons from HD patients, it was decided to directly test if altering the cellular state of adult HD fibroblasts to an embryonic-like stage, a process that effectively erases aging markers, would affect the aggregation propensity of mHTT in HD-MSNs. HD-iPSCs were derived from adult HD fibroblasts and these stem cells were differentiated back into fibroblasts using a method for generating human embryonic fibroblasts (HEFs) (see e.g., FIG. 26A and FIG. 27A). […] HD.40-HEFs expressed fibroblast markers vimentin and fibronectin (see e.g., FIG. 26B). […] Upon direct conversion of HD.40-HEFs to MSNs (human embryonic MSNs, heMSNs), little to no aggregated mHTT was detectable in HD-heMSNs at PID 21 (see e.g., FIG. FIGS. 24B and 24C). […] It was then decided to investigate differences in mHTT aggregation propensity to elucidate the contribution of aging to protein aggregation in HD. […] To directly test if proteasome activity was preventing the formation of inclusions in HEFs, GFP-74Q-expressing HEF cells were treated with the proteasome inhibitor lactacystin, and assessed the presence of inclusions 24 hours later. […]

Sequence of ATM (Q13315 whole entry, species assumed): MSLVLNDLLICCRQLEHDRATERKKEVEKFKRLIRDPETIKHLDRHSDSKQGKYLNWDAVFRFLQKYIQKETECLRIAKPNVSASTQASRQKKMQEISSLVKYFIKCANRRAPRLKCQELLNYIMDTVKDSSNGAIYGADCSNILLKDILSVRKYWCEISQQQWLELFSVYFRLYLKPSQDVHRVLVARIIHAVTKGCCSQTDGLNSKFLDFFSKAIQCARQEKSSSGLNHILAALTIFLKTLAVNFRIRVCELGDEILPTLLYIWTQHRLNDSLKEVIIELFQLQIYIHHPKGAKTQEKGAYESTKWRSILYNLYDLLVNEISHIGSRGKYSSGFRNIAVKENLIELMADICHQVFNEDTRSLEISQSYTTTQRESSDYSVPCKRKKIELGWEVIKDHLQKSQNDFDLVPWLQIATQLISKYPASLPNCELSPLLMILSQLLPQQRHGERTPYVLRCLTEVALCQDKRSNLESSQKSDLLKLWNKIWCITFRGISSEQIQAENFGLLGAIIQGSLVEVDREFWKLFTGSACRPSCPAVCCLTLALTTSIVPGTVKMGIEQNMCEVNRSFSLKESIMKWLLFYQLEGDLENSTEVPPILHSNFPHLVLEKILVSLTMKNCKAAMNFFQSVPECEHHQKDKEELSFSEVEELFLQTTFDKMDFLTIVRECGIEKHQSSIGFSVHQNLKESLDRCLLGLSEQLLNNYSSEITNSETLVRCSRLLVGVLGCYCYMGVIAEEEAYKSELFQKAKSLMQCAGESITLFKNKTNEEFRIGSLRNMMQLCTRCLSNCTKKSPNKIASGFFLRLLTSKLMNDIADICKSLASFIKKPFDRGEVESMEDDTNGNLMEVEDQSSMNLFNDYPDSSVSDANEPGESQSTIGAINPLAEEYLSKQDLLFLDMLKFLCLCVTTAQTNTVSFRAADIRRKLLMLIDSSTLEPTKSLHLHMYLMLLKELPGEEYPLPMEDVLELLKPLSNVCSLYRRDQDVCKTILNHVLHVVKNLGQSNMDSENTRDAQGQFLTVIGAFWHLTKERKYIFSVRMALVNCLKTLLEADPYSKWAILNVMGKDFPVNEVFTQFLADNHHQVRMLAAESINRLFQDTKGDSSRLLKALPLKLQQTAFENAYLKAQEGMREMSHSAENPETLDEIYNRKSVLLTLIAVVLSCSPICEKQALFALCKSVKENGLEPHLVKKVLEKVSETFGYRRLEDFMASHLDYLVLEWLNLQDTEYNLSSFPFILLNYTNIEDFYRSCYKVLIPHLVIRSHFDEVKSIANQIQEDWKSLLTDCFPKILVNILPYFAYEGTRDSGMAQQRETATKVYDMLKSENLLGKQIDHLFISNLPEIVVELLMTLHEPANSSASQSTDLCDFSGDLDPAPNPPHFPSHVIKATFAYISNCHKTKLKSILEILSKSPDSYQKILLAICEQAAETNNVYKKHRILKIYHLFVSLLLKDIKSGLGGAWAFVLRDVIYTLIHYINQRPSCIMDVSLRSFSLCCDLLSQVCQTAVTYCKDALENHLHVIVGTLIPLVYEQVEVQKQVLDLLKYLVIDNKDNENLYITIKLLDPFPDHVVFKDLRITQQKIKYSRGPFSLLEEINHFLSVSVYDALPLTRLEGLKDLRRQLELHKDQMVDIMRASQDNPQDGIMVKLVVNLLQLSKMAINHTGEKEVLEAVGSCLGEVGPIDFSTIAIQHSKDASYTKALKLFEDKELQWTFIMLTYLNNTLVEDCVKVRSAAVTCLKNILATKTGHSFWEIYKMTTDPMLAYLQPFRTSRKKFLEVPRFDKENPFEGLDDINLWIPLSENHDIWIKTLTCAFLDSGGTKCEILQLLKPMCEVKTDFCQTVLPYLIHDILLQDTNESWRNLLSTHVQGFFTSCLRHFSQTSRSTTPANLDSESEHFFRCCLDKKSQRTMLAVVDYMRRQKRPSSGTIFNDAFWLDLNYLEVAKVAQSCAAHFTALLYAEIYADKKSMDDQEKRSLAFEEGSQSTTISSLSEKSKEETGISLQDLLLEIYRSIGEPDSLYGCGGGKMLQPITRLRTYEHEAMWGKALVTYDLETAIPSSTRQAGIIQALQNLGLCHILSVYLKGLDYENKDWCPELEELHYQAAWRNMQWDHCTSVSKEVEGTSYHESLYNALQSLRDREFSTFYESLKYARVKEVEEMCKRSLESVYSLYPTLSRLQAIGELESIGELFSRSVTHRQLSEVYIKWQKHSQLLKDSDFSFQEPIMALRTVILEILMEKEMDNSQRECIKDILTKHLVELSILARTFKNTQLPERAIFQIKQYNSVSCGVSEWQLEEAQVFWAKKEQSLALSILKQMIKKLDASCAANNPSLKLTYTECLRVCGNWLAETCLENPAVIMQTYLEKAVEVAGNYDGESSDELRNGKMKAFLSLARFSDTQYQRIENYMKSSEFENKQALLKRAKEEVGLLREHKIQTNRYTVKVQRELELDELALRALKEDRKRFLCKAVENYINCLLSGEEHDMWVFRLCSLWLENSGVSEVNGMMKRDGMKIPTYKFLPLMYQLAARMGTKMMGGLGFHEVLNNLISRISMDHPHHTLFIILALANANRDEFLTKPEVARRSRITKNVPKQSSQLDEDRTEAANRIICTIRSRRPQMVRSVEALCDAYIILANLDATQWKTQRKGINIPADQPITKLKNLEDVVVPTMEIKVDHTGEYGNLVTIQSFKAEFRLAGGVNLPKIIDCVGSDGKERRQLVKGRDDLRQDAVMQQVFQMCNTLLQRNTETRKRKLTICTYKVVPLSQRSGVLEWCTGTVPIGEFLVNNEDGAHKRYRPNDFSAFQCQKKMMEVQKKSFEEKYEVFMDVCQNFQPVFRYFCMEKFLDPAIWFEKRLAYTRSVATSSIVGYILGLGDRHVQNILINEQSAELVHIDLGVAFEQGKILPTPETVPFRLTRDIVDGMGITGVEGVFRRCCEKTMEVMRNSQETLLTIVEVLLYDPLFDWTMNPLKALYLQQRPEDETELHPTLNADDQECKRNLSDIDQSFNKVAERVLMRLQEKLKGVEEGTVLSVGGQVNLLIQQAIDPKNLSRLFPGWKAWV

Row | SMILES | mHTT-induced cell death (ATM) | levels of spontaneous cell death (SYTOX-positive cells over Hoechst) (HD-MSNs [1]) | levels of stress-induced cell death (H2O2-induced oxidative stress) (HD-MSNs [2]) | number of cells bearing inclusions (IBs) [3] | number of cells bearing inclusions (IBs) ([3]; listed as Lactacystin)
1 | C[C@@H]1CN(CC(=O)Nc2ccc3c(c2)Cc2cccc(-c4cc(=O)cc(N5CCOCC5)o4)c2S3)C[C@H](C)O1 [KU60019] | reduce mHTT-induced cell death | significantly reduced; also recorded: reduces cell death levels | significantly reduced; also recorded: protects HD-MSNs against H2O2-induced oxidative stress |  | 
2 | CC(=O)N[C@@H](CSC(=O)[C@]1([C@@H](O)C(C)C)NC(=O)[C@H](C)[C@@H]1O)C(=O)O [lactacystin] |  |  |  | induces IBs | significantly increased
